{"source": "the NIST ThermoML archive (doi:10.1021/je400486p)", "test": "refractive index (Na D-line) (dimensionless); xn = mol fraction of the nth substance listed", "details": "101.3 kPa, Liquid, Standard Abbe refractometry", "note": "Numbers after ± are expanded uncertainties."}
{"smiles": "CN1CCCC1=O", "note": "[N-methylpyrrolidone] + CCC(C)O", "values": [{"measurement": "refractive index", "setting": "288.15 K, x2 = 0", "result": "1.47166 ± 0.00037"}, {"measurement": "refractive index", "setting": "288.15 K, x2 = 0.1049", "result": "1.46489 ± 0.00036"}, {"measurement": "refractive index", "setting": "288.15 K, x2 = 0.2001", "result": "1.45851 ± 0.00036"}, {"measurement": "refractive index", "setting": "288.15 K, x2 = 0.3009", "result": "1.45151 ± 0.00035"}, {"measurement": "refractive index", "setting": "288.15 K, x2 = 0.4019", "result": "1.44431 ± 0.00035"}, {"measurement": "refractive index", "setting": "288.15 K, x2 = 0.5003", "result": "1.43715 ± 0.00034"}, {"measurement": "refractive index", "setting": "288.15 K, x2 = 0.5995", "result": "1.42982 ± 0.00034"}, {"measurement": "refractive index", "setting": "288.15 K, x2 = 0.7004", "result": "1.42227 ± 0.00034"}, {"measurement": "refractive index", "setting": "288.15 K, x2 = 0.7985", "result": "1.41487 ± 0.00033"}, {"measurement": "refractive index", "setting": "288.15 K, x2 = 0.899", "result": "1.40724 ± 0.00033"}, {"measurement": "refractive index", "setting": "293.15 K, x2 = 0", "result": "1.46952 ± 0.00037"}, {"measurement": "refractive index", "setting": "293.15 K, x2 = 0.1049", "result": "1.46273 ± 0.00036"}, {"measurement": "refractive index", "setting": "293.15 K, x2 = 0.2001", "result": "1.45634 ± 0.00036"}, {"measurement": "refractive index", "setting": "293.15 K, x2 = 0.3009", "result": "1.44937 ± 0.00035"}, {"measurement": "refractive index", "setting": "293.15 K, x2 = 0.4019", "result": "1.44219 ± 0.00035"}, {"measurement": "refractive index", "setting": "293.15 K, x2 = 0.5003", "result": "1.43504 ± 0.00034"}, {"measurement": "refractive index", "setting": "293.15 K, x2 = 0.5995", "result": "1.42772 ± 0.00034"}, {"measurement": "refractive index", "setting": "293.15 K, x2 = 0.7004", "result": "1.42016 ± 0.00034"}, {"measurement": "refractive index", "setting": "293.15 K, x2 = 0.7985", "result": "1.41275 ± 0.00033"}, {"measurement": "refractive index", "setting": "293.15 K, x2 = 0.899", "result": "1.40512 ± 0.00033"}, {"measurement": "refractive index", "setting": "298.15 K, x2 = 0", "result": "1.46736 ± 0.00037"}, {"measurement": "refractive index", "setting": "298.15 K, x2 = 0.1049", "result": "1.46061 ± 0.00036"}, {"measurement": "refractive index", "setting": "298.15 K, x2 = 0.2001", "result": "1.45418 ± 0.00036"}, {"measurement": "refractive index", "setting": "298.15 K, x2 = 0.3009", "result": "1.4473 ± 0.00035"}, {"measurement": "refractive index", "setting": "298.15 K, x2 = 0.4019", "result": "1.44013 ± 0.00035"}, {"measurement": "refractive index", "setting": "298.15 K, x2 = 0.5003", "result": "1.43298 ± 0.00034"}, {"measurement": "refractive index", "setting": "298.15 K, x2 = 0.5995", "result": "1.42564 ± 0.00034"}, {"measurement": "refractive index", "setting": "298.15 K, x2 = 0.7004", "result": "1.41806 ± 0.00034"}, {"measurement": "refractive index", "setting": "298.15 K, x2 = 0.7985", "result": "1.41063 ± 0.00033"}, {"measurement": "refractive index", "setting": "298.15 K, x2 = 0.899", "result": "1.40302 ± 0.00033"}, {"measurement": "refractive index", "setting": "303.15 K, x2 = 0", "result": "1.4652 ± 0.00037"}, {"measurement": "refractive index", "setting": "303.15 K, x2 = 0.1049", "result": "1.45844 ± 0.00036"}, {"measurement": "refractive index", "setting": "303.15 K, x2 = 0.2001", "result": "1.45203 ± 0.00036"}, {"measurement": "refractive index", "setting": "303.15 K, x2 = 0.3009", "result": "1.44515 ± 0.00035"}, {"measurement": "refractive index", "setting": "303.15 K, x2 = 0.4019", "result": "1.43799 ± 0.00035"}, {"measurement": "refractive index", "setting": "303.15 K, x2 = 0.5003", "result": "1.43083 ± 0.00034"}, {"measurement": "refractive index", "setting": "303.15 K, x2 = 0.5995", "result": "1.42349 ± 0.00034"}, {"measurement": "refractive index", "setting": "303.15 K, x2 = 0.7004", "result": "1.41587 ± 0.00034"}, {"measurement": "refractive index", "setting": "303.15 K, x2 = 0.7985", "result": "1.40842 ± 0.00033"}, {"measurement": "refractive index", "setting": "303.15 K, x2 = 0.899", "result": "1.40081 ± 0.00033"}, {"measurement": "refractive index", "setting": "308.15 K, x2 = 0", "result": "1.46306 ± 0.00037"}, {"measurement": "refractive index", "setting": "308.15 K, x2 = 0.1049", "result": "1.45632 ± 0.00036"}, {"measurement": "refractive index", "setting": "308.15 K, x2 = 0.2001", "result": "1.44987 ± 0.00036"}, {"measurement": "refractive index", "setting": "308.15 K, x2 = 0.3009", "result": "1.44301 ± 0.00035"}, {"measurement": "refractive index", "setting": "308.15 K, x2 = 0.4019", "result": "1.43583 ± 0.00035"}, {"measurement": "refractive index", "setting": "308.15 K, x2 = 0.5003", "result": "1.42867 ± 0.00034"}, {"measurement": "refractive index", "setting": "308.15 K, x2 = 0.5995", "result": "1.42131 ± 0.00034"}, {"measurement": "refractive index", "setting": "308.15 K, x2 = 0.7004", "result": "1.41372 ± 0.00034"}, {"measurement": "refractive index", "setting": "308.15 K, x2 = 0.7985", "result": "1.40626 ± 0.00033"}, {"measurement": "refractive index", "setting": "308.15 K, x2 = 0.899", "result": "1.39861 ± 0.00033"}, {"measurement": "refractive index", "setting": "313.15 K, x2 = 0", "result": "1.46095 ± 0.00037"}, {"measurement": "refractive index", "setting": "313.15 K, x2 = 0.1049", "result": "1.45416 ± 0.00036"}, {"measurement": "refractive index", "setting": "313.15 K, x2 = 0.2001", "result": "1.44773 ± 0.00036"}, {"measurement": "refractive index", "setting": "313.15 K, x2 = 0.3009", "result": "1.44083 ± 0.00035"}, {"measurement": "refractive index", "setting": "313.15 K, x2 = 0.4019", "result": "1.43366 ± 0.00035"}, {"measurement": "refractive index", "setting": "313.15 K, x2 = 0.5003", "result": "1.42651 ± 0.00034"}, {"measurement": "refractive index", "setting": "313.15 K, x2 = 0.5995", "result": "1.41919 ± 0.00034"}, {"measurement": "refractive index", "setting": "313.15 K, x2 = 0.7004", "result": "1.41155 ± 0.00034"}, {"measurement": "refractive index", "setting": "313.15 K, x2 = 0.7985", "result": "1.40406 ± 0.00033"}, {"measurement": "refractive index", "setting": "313.15 K, x2 = 0.899", "result": "1.39638 ± 0.00033"}, {"measurement": "refractive index", "setting": "318.15 K, x2 = 0", "result": "1.45891 ± 0.00037"}, {"measurement": "refractive index", "setting": "318.15 K, x2 = 0.1049", "result": "1.45204 ± 0.00036"}, {"measurement": "refractive index", "setting": "318.15 K, x2 = 0.2001", "result": "1.44559 ± 0.00036"}, {"measurement": "refractive index", "setting": "318.15 K, x2 = 0.3009", "result": "1.43868 ± 0.00035"}, {"measurement": "refractive index", "setting": "318.15 K, x2 = 0.4019", "result": "1.43152 ± 0.00035"}, {"measurement": "refractive index", "setting": "318.15 K, x2 = 0.5003", "result": "1.42436 ± 0.00034"}, {"measurement": "refractive index", "setting": "318.15 K, x2 = 0.5995", "result": "1.41701 ± 0.00034"}, {"measurement": "refractive index", "setting": "318.15 K, x2 = 0.7004", "result": "1.40934 ± 0.00034"}, {"measurement": "refractive index", "setting": "318.15 K, x2 = 0.7985", "result": "1.40181 ± 0.00033"}, {"measurement": "refractive index", "setting": "318.15 K, x2 = 0.899", "result": "1.39408 ± 0.00033"}, {"measurement": "refractive index", "setting": "323.15 K, x2 = 0", "result": "1.4568 ± 0.00037"}, {"measurement": "refractive index", "setting": "323.15 K, x2 = 0.1049", "result": "1.44996 ± 0.00036"}, {"measurement": "refractive index", "setting": "323.15 K, x2 = 0.2001", "result": "1.4435 ± 0.00036"}, {"measurement": "refractive index", "setting": "323.15 K, x2 = 0.3009", "result": "1.43654 ± 0.00035"}, {"measurement": "refractive index", "setting": "323.15 K, x2 = 0.4019", "result": "1.42934 ± 0.00035"}, {"measurement": "refractive index", "setting": "323.15 K, x2 = 0.5003", "result": "1.42215 ± 0.00034"}, {"measurement": "refractive index", "setting": "323.15 K, x2 = 0.5995", "result": "1.41481 ± 0.00034"}, {"measurement": "refractive index", "setting": "323.15 K, x2 = 0.7004", "result": "1.40711 ± 0.00034"}, {"measurement": "refractive index", "setting": "323.15 K, x2 = 0.7985", "result": "1.39955 ± 0.00033"}, {"measurement": "refractive index", "setting": "323.15 K, x2 = 0.899", "result": "1.39172 ± 0.00033"}]}
